In PubChem BioAssay (NCI):
Values joined by “and” are separate entries in the source; they are usually repeats but may differ in a detail not shown here. Identical values can stand only once.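 A five-concentration, 48-hour dose response in 96-well plates underlies each endpoint, interpolated linearly between surrounding concentrations. GI50 is the concentration that inhibits growth by half. TGI is the concentration that stops growth completely.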

Legend:
Test in all cases: DTP human tumour cell line panel, 48 h
[1] = system: SF-295 CNS
[2] = system: 786-0 renal
[3] = system: UACC-62 melanoma
[4] = system: NCI-H522 lung
[5] = system: SR leukemia
[6] = system: OVCAR-4 ovarian
[7] = system: HCT-15 colon
[8] = system: CAKI-1 renal
[9] = system: RPMI-8226 leukemia
[10] = system: IGROV1 ovarian

Compound | GI50 [1] [µM] | TGI [1] | GI50 [2] [nM] | TGI [2] [µM] | GI50 [3] [µM] | TGI [3] [µM] | GI50 [4] [µM] | TGI [4] [µM] | GI50 [5] [µM] | TGI [5] [µM] | GI50 [6] [µM] | TGI [6] [µM] | GI50 [7] [µM] | TGI [7] [µM] | GI50 [8] [nM] | TGI [8] [µM] | GI50 [9] [µM] | TGI [9] [µM] | GI50 [10] [µM] | TGI [10] [µM]
COc1cc(-c2cc(-c3ccc(N(C)C)cc3)nc(N3CCC(O)CC3)c2C#N)cc(OC)c1OC | 0.212 | 0.518 µM | 399 | > 100 | 0.277 | 0.741 | 0.338 | 1.32 | 0.432 | 2.94 | 1.21 | > 100 | 0.306 | 1.86 | 22.4 | 0.7 | 0.181 | 1.74 | 0.555 | 38.4
O=C1CCCC1C(=O)Nc1ccc2ccccc2c1 (centres undefined) |  | > 100 µM |  | > 100 |  | > 100 |  | > 100 |  | > 100 |  | > 100 |  | > 100 |  | > 100 |  | > 100 |  | > 100
FC(F)(F)c1ccc2nc(-c3nc(-c4ccccc4)n4ccccc34)[nH]c2c1 | 3.85 | 15.1 µM | 1920 | 3.56 | 3.19 | 17.9 | 2.99 | 9.88 | 3.65 | > 100 | 1.81 | 3.71 | 3.5 | 22 | 5070 | 27.1 | 3.84 | 36.9 | 4.03 | 20.5
COc1ccc(/C=C2/SC(=Nc3c(C)nn(-c4ccccc4)c3N)NC2=O)cc1 | 2.76 | 13.2 µM | 6940 | 89.4 | 3.78 | 18.3 | 3.1 | 16.4 | 3.63 | 18 | 8.21 | > 100 | 3.64 | 30.7 | 2820 | 15.7 | 3.9 | 22.9 | 5.2 | 28.8
COc1ccc(CN(O)C2C(CO)OC(n3cc(I)c(=O)[nH]c3=O)C2O)cc1 (centres undefined) |  | > 100 µM |  | > 100 |  | > 100 |  | > 100 |  | > 100 |  | > 100 |  | > 100 |  | > 100 |  | > 100 |  | > 100
CCc1nc(N)nc(N)c1-c1ccc(Cl)cc1 | 3.17 | 37.9 µM and > 100 µM | 5890 | > 100 | 3.93 | > 100 |  | > 100 | 18.7 | > 100 | 60 | > 100 | 4.74 | > 100 | 6340 | > 100 | 56.6 | > 100 | 11.4 | > 100
CCOC(=O)c1cnc2ccc(Cl)cc2c1NCCCN(C)C | 22.9 | > 100 µM | 43000 | > 100 | 16.4 | 32.8 | 16.2 | 39.4 | 6.42 | 70.4 | 23.6 | > 100 | 25.2 | > 100 | 23800 | 96.5 | 20.7 | 54.9 | 35 | > 100
Cn1cc(-c2ccc3cc(-c4ccc(CC(=O)Nc5cc(C(C)(C)C)nn5C)cc4)cnc3c2)cn1 | 0.307 | > 100 µM | 351 | > 100 | 0.179 | > 100 | 0.251 | > 100 | 0.256 | > 100 | 0.159 | > 100 | 0.157 | > 100 | 51.9 | > 100 | 0.254 | 1.78 | 0.063 | > 100
CCN(CC)CCN(C)CC(C)(C)C(=O)/C=C/c1ccccc1 |  | 29.4 µM |  | 29.4 |  | 26.9 |  | 21.4 |  | 45.5 |  | 24.3 |  | 28.4 |  | 28.7 |  | 36 |  | 36.5
COc1ccc(NC(=O)c2ccc(NC3=C(Cl)C(=O)N(Cc4ccccc4)C3=O)cc2)cc1 | 3.52 | 10.4 µM | 2890 | 7.97 | 16.3 | 36.8 | 3.3 | 13.8 | 0.766 | 3.61 | 3.01 | 8.35 | 4.04 | 17.3 | 1890 | 3.5 | 2.38 | 8.06 | 1.5 | 3.93
